Reference: PubChem BioAssay AID651581 (Sanford-Burnham Center for Chemical Genomics, 2012)
Active and inactive are the calls of the source. The rule behind the calls is not given here.

Legend:
[1] = target: Endothelial PAS domain-containing protein 1 (Homo sapiens) (UniProt Q99814); test: HIF-2a and HIF-1a reporter inhibition panel, dose response, selectivity assay for HIF-2a inhibitor project, cell-based, luminescence (AID 651581)
[2] = target: Hypoxia-inducible factor 1-alpha (Homo sapiens) (UniProt Q16665); test: as above; conditions: HIF-1a
Hypoxia-inducible factor 1-alpha (Homo sapiens), sequence (Q16665 whole entry, looked up): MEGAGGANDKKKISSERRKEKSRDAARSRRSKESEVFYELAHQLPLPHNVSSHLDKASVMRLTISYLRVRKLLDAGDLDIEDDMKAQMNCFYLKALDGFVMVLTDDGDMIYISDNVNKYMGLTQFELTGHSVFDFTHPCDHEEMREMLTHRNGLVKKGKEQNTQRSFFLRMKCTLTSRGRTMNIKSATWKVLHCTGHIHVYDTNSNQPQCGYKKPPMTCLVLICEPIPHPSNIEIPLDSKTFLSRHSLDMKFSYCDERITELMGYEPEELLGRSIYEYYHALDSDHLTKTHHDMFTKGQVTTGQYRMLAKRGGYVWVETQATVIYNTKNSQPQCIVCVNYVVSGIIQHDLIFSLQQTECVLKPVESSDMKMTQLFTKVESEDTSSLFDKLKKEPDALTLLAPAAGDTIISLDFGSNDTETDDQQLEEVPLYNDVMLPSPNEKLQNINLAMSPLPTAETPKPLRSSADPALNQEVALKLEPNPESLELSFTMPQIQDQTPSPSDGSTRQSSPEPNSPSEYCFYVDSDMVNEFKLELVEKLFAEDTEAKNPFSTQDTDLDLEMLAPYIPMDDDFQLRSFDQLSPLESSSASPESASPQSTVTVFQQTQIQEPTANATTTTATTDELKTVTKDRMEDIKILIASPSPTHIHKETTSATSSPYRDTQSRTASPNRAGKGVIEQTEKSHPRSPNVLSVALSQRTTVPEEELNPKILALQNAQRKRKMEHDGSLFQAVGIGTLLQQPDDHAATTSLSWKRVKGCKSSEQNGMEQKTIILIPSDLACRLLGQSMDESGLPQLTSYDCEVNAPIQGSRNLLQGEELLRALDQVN

| IC50 ([1]; HIF-2a PANC, mean of runs) | IC50 ([1]; HIF-2a PANC, run 1) [µM] | IC50 ([1]; HIF-2a PANC, run 2) [µM] | IC50 ([1]; HIF-2a, mean of runs) | IC50 ([1]; HIF-2a, run 1) [µM] | IC50 ([1]; HIF-2a, run 2) [µM] | IC50 ([2]; mean of runs) | IC50 ([2]; run 1) [µM] | IC50 ([2]; run 2) [µM] | Structure (SMILES) |
| --- | --- | --- | --- | --- | --- | --- | --- | --- | --- |
| inactive | 9.33 | 4.41 | 1.12 µM | 1.15 | 1.09 | 5.89 µM | 6.19 | 5.6 | NCCN1C(=O)S/C(=C\c2ccc3c(c2)OCO3)C1=O |
| – | > 99 | < 30 | 2.86 µM | 2.92 | 2.79 | – | > 99 | > 99 | O=C(OCC(F)(F)F)c1cccc(COc2ccc3ccccc3c2)c1 |
| 14.2 µM | 19.7 | 8.77 | 7.52 µM | 7.96 | 7.07 | 28.8 µM | 31.7 | 25.9 | CCOC(=O)C1CCN(Cc2cc(=O)oc3c(C)c(C)ccc23)CC1 |
| – | > 99 | > 99 | – | > 99 | 1.57 | – | > 99 | 38.7 | CCC(=O)Nc1cccc(C(=O)c2ccc(C)c(C)c2)c1 |
| – | > 99 | 33.3 | inactive | 18.3 | 17 | – | 15.7 | > 99 | Nc1ccc(-c2nnn(CC(=O)N3CCCCC3)n2)cc1 |
| 0.417 µM | 0.379 | 0.455 | – | 51.8 | < 0.19 | – | > 99 | > 99 | N#Cc1c(NC(=O)CCCC(=O)O)sc2c1CCCCC2 |
| > 99 µM (inactive) | > 99 | > 99 | inactive | 14.7 | 14.7 | – | 71.7 | > 99 | Nc1nc2ccc(S(=O)(=O)c3ccc4nc(N)sc4c3)cc2s1 |
| – | > 99 | 18.8 | 6.36 µM | 6.48 | 6.23 | – | > 99 | > 99 | O=C(O)c1cccc(CSc2nnc(COc3ccccc3)o2)c1 |

Second part, the molecule before the results:

| Structure (SMILES) | IC50 ([1]; HIF-2a PANC, mean of runs) | IC50 ([1]; HIF-2a PANC, run 1) [µM] | IC50 ([1]; HIF-2a PANC, run 2) [µM] | IC50 ([1]; HIF-2a, mean of runs) | IC50 ([1]; HIF-2a, run 1) [µM] | IC50 ([1]; HIF-2a, run 2) [µM] | IC50 ([2]; mean of runs) | IC50 ([2]; run 1) [µM] | IC50 ([2]; run 2) [µM] |
| --- | --- | --- | --- | --- | --- | --- | --- | --- | --- |
| Cc1c(CCC(=O)N2CCC[C@H]2C(=O)O)c(=O)oc2cc3oc4c(c3cc12)CCCC4 | 1.12 µM | 1.11 | 1.12 | 0.512 µM | 0.451 | 0.574 | inactive | 0.824 | 1.53 |
| Cc1nc2cc(-c3cccc(F)c3)nn2c(C)c1CCC(=O)NC(C)c1ccc2c(c1)OCCO2 (stereo not drawn) | inactive | 41.1 | 11.9 | 4.38 µM | 4.45 | 4.31 | 18.6 µM | 19.2 | 18 |
| CCOC(=O)c1sc(NC(=O)c2cc3c(s2)CCC(C)C3)nc1C (stereo not drawn) | – | < 1 | > 99 | – | 0.2 | > 99 | – | 20.5 | > 99 |
| CC(C)C[C@@H](N)c1nnc(SCC(=O)c2ccc(Cl)cc2)o1 | 3.91 µM | 4.22 | 3.6 | 4.02 µM | 4.09 | 3.94 | – | > 99 | > 99 |
| C/C(=N/NC(=O)c1cc(C2CC2)[nH]n1)c1cccs1 | – | > 99 | < 30 | < 30 µM (inactive) | < 30 | < 30 | inactive | 24.8 | 21.7 |
| NNC(=O)COc1ccc(-c2nccc(-c3ccc(F)cc3)n2)cc1 | 2.37 µM | 2.39 | 2.34 | 2.66 µM | 2.56 | 2.75 | inactive | 3.37 | 1.1 |
| Cc1ccc(/C=N/Nc2cccc(C(=O)O)c2)s1 | – | > 99 | > 99 | – | < 30 | > 99 | > 99 µM (inactive) | > 99 | > 99 |
| O=C(O)c1ccc(N/N=C/c2ccc3ncccc3c2)cc1 | – | > 99 | 19.3 | – | < 30 | > 99 | inactive | 18.8 | 16.8 |
